Assay results: ChEMBL document CHEMBL1201862, “PubChem BioAssay data set” (2004)
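Dose response: 5 concentrations. Exposure: 48 h. Format: 96-well plates. Endpoint: linear interpolation; highest concentration if not reached. Here, GI50 denotes the concentration required for 50% inhibition of growth.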 Calls of active or inactive are those of the source. Rule as the data show it: active = GI50 up to about 1.1 µM and inactive = higher.

Legend:
Experiment in all cases: growth of human tumour cells (NCI), 48 h
786-0 = test system: 786-0
OVCAR-4 = test system: OVCAR-4
RPMI-8226 = test system: RPMI-8226
SR = test system: SR
BT-549 = test system: BT-549
COLO 205 = test system: COLO 205
A498 = test system: A498
MDA-MB-231 = test system: MDA-MB-231
ACHN = test system: ACHN
CCRF-CEM = test system: CCRF-CEM
UO-31 = test system: UO-31
SK-MEL-5 = test system: SK-MEL-5
HOP-92 = test system: HOP-92
MDA-MB-435 = test system: MDA-MB-435
SK-OV-3 = test system: SK-OV-3
SF-295 = test system: SF-295
A549 = test system: A549
TK-10 = test system: TK-10
SN12C = test system: SN12C
HL-60 = test system: HL-60
NCI-H460 = test system: NCI-H460
MDA-N = test system: MDA-N
CAKI-1 = test system: CAKI-1
K562 = test system: K562
LOX IMVI = test system: LOX IMVI
UACC-257 = test system: UACC-257
HCT-116 = test system: HCT-116
HCC 2998 = test system: HCC 2998
SNB-19 = test system: SNB-19
T47D = test system: T47D
DU-145 = test system: DU-145
SW-620 = test system: SW-620
U-251 = test system: U-251
RXF 393 = test system: RXF 393
SK-MEL-28 = test system: SK-MEL-28
NCI-H23 = test system: NCI-H23
UACC-62 = test system: UACC-62
HCT-15 = test system: HCT-15
SNB-75 = test system: SNB-75
HT-29 = test system: HT-29
Hs-578T = test system: Hs-578T
OVCAR-8 = test system: OVCAR-8
MCF7 = test system: MCF7
SF-539 = test system: SF-539
NCI-H522 = test system: NCI-H522
HOP-62 = test system: HOP-62
EKVX = test system: EKVX
IGROV-1 = test system: IGROV-1
OVCAR-3 = test system: OVCAR-3
SK-MEL-2 = test system: SK-MEL-2
KM12 = test system: KM12
MOLT-4 = test system: MOLT-4
NCI-H226 = test system: NCI-H226
OVCAR-5 = test system: OVCAR-5
NCI/ADR-RES = test system: NCI/ADR-RES
SF-268 = test system: SF-268
PC-3 = test system: PC-3
M14 = test system: M14
Malme-3M = test system: Malme-3M

Q: Which results are given for `Nc1nc2c(c(=O)[nH]1)C(c1ccc(Cl)cc1)C=C(c1ccccc1)N2` (stereo not given)?
A: GI50 (786-0): 25.4 µM (inactive); GI50 (OVCAR-4): 21.6 µM (inactive); GI50 (RPMI-8226): 18.4 µM (inactive); GI50 (SR): 19.4 µM (inactive); GI50 (BT-549): 35.1 µM (inactive); GI50 (COLO 205): 19.1 µM (inactive); GI50 (A498): 54.5 µM (inactive); GI50 (MDA-MB-231): 20.9 µM (inactive); GI50 (ACHN): 75.3 µM (inactive); GI50 (CCRF-CEM): 24.8 µM (inactive); GI50 (UO-31): 92.7 µM (inactive); GI50 (SK-MEL-5): 19.9 µM (inactive); GI50 (HOP-92): 20.4 µM (inactive); GI50 (MDA-MB-435): 15 µM (inactive); GI50 (SK-OV-3): 23.8 µM (inactive); GI50 (SF-295): 26.7 µM (inactive); GI50 (A549): 25.9 µM (inactive); GI50 (TK-10): 51.6 µM (inactive); GI50 (SN12C): 19.9 µM (inactive); GI50 (HL-60): 30.8 µM (inactive); GI50 (NCI-H460): 20.4 µM (inactive); GI50 (MDA-N): 18.6 µM (inactive); GI50 (CAKI-1): 91.4 µM (inactive); GI50 (K562): 20.6 µM (inactive); GI50 (LOX IMVI): 45.3 µM (inactive); GI50 (UACC-257): 54.8 µM (inactive); GI50 (HCT-116): 16.3 µM (inactive); GI50 (HCC 2998): 15.3 µM (inactive); GI50 (SNB-19): 37.9 µM (inactive); GI50 (T47D): 21.8 µM (inactive); GI50 (DU-145): 29.4 µM (inactive); GI50 (SW-620): 18.1 µM (inactive); GI50 (U-251): 17.8 µM (inactive); GI50 (RXF 393): 43.6 µM (inactive); GI50 (SK-MEL-28): 22.6 µM (inactive); GI50 (NCI-H23): 24.4 µM (inactive); GI50 (UACC-62): 27.4 µM (inactive); GI50 (HCT-15): 34.7 µM

Q: How did the GI50 (786-0) turn out when `CCOC(=O)C(C(=S)Nc1ccccc1)c1nn2c(=O)cc(C)nc2s1` (stereo not given) was run?
A: 39.8 µM (inactive)

Q: What about the GI50 (OVCAR-4) of the same compound?
A: 30.8 µM (inactive)

Q: And the GI50 (RPMI-8226)?
A: 26.3 µM (inactive)

Q: What about the GI50 (SNB-75) of the same compound?
A: 16.9 µM (inactive)

Q: And the GI50 (HT-29)?
A: 19.3 µM (inactive)

Q: And the GI50 (Hs-578T)?
A: 41 µM (inactive)

Q: What about the GI50 (SR) of the same compound?
A: 25.1 µM (inactive)

Q: And the GI50 (BT-549)?
A: 25.2 µM (inactive)

Q: And the GI50 (COLO 205)?
A: 20.1 µM (inactive)

Q: And the GI50 (OVCAR-8)?
A: 23.6 µM (inactive)

Q: And the GI50 (MCF7)?
A: 19.4 µM (inactive)

Q: What about the GI50 (MDA-MB-231) of the same compound?
A: 31.8 µM (inactive)

Q: What about the GI50 (ACHN) of the same compound?
A: 20.5 µM (inactive)

Q: And the GI50 (SF-539)?
A: 22.9 µM (inactive)

Q: And the GI50 (NCI-H522)?
A: 22.3 µM (inactive)

Q: What about the GI50 (CCRF-CEM) of the same compound?
A: 33.8 µM (inactive)

Q: And the GI50 (HOP-62)?
A: 65 µM (inactive)

Q: And the GI50 (UO-31)?
A: 22.2 µM (inactive)

Q: What about the GI50 (EKVX) of the same compound?
A: 21.6 µM (inactive)

Q: What about the GI50 (SK-MEL-5) of the same compound?
A: 23.1 µM (inactive)

Q: And the GI50 (HOP-92)?
A: 16.4 µM (inactive)

Q: What about the GI50 (MDA-MB-435) of the same compound?
A: 20.9 µM (inactive)

Q: What about the GI50 (SK-OV-3) of the same compound?
A: 23.3 µM (inactive)

Q: What about the GI50 (SF-295) of the same compound?
A: 32.4 µM (inactive)

Q: And the GI50 (IGROV-1)?
A: 36.7 µM (inactive)

Q: What about the GI50 (OVCAR-3) of the same compound?
A: 24.5 µM (inactive)

Q: And the GI50 (SK-MEL-2)?
A: 36.2 µM (inactive)

Q: What about the GI50 (KM12) of the same compound?
A: 25.4 µM (inactive)

Q: And the GI50 (A549)?
A: 37.4 µM (inactive)

Q: What about the GI50 (TK-10) of the same compound?
A: 29.7 µM (inactive)

Q: What about the GI50 (SN12C) of the same compound?
A: 36.7 µM (inactive)

Q: What about the GI50 (HL-60) of the same compound?
A: 20.5 µM (inactive)

Q: And the GI50 (NCI-H460)?
A: 31.6 µM (inactive)

Q: And the GI50 (CAKI-1)?
A: 20.1 µM (inactive)

Q: What about the GI50 (MOLT-4) of the same compound?
A: 25 µM (inactive)

Q: What about the GI50 (K562) of the same compound?
A: 20.9 µM (inactive)

Q: And the GI50 (LOX IMVI)?
A: 14.4 µM (inactive)

Q: And the GI50 (NCI-H226)?
A: 21.7 µM (inactive)

Q: What about the GI50 (UACC-257) of the same compound?
A: 22.7 µM (inactive)

Q: And the GI50 (HCT-116)?
A: 20.8 µM (inactive)

Q: And the GI50 (HCC 2998)?
A: 25.1 µM (inactive)

Q: What about the GI50 (SNB-19) of the same compound?
A: 35.6 µM (inactive)

Q: And the GI50 (T47D)?
A: 25.5 µM (inactive)

Q: What about the GI50 (OVCAR-5) of the same compound?
A: 35.3 µM (inactive)

Q: And the GI50 (DU-145)?
A: 36.3 µM (inactive)

Q: And the GI50 (SW-620)?
A: 46.7 µM (inactive)

Q: What about the GI50 (NCI/ADR-RES) of the same compound?
A: 26.7 µM (inactive)

Q: What about the GI50 (U-251) of the same compound?
A: 26.7 µM (inactive)

Q: And the GI50 (RXF 393)?
A: 39.1 µM (inactive)

Q: What about the GI50 (SK-MEL-28) of the same compound?
A: 21.1 µM (inactive)

Q: What about the GI50 (SF-268) of the same compound?
A: 28.8 µM (inactive)

Q: What about the GI50 (PC-3) of the same compound?
A: 24.8 µM (inactive)

Q: What about the GI50 (NCI-H23) of the same compound?
A: 35.6 µM (inactive)

Q: And the GI50 (UACC-62)?
A: 23.7 µM (inactive)

Q: What about the GI50 (M14) of the same compound?
A: 22.9 µM (inactive)

Q: And the GI50 (HCT-15)?
A: 27.7 µM

Q: What about the GI50 (Malme-3M) of the same compound?
A: 22.9 µM (inactive)
